Laboratory results reported in patent US10975068B2, “6-aminopyridin-3-yl thiazoles as modulators of RORγT” (Janssen Pharmaceutica NV, priority 2016, dated 2021).
Like-named read-outs stand apart in the source and are kept apart here.

What was measured:
[1] = molecular target: human RORγt ligand binding domain (RORγt LBD) (Homo sapiens (Human), UniProt P51449); experiment: RORγt ThermoFluor® assay (thermal shift binding); conditions: read-out: ThermoFluor® Assay, Kd
In short: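 His-tagged human RORγt LBD (0.065 mg/mL) with 60 μM 1,8-ANS in 100 mM Hepes pH 7.0, 10 mM NaCl, 2.5 mM GSH, 0.002% Tween-20 was heated at 1 °C/min.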

[2] = molecular target: full-length human RORγt (Homo sapiens (Human), UniProt P51449); experiment: RORγt (full-length human) reporter assay, Conditions B or C; assay type: cell-based; conditions: for inhibition at 1 µM: at 1 μM compound concentration; for inhibition at 1 µM / inhibition at 3 µM: read-out: RORγt (FL) Reporter Assay B or C, % inhibition; for IC50: read-out: RORγt (FL) Reporter Assay B or C, IC50; for RORγt (FL) Reporter Assay B or C, % inhibition (value marked *): marked *: footnote not given; for inhibition at 3 µM: at 3 μM compound concentration
In short: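 HEK293T cells transiently co-transfected with GAL4-DBD–full-length human RORγt (nt 142-1635, NM_001001523.1) plus GAL4-firefly and CMV-Renilla luciferase reporters; compounds added 4-6 h post-transfection for 16-20 h in 1.3% FBS, 0.1% DMSO. Firefly signal normalized to DMSO and saturating reference compound, then to Renilla; IC50 from concentration plots.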

Chain of human RORγt ligand binding domain (RORγt LBD) (P51449 other isoform, or with tags, fused parts or gaps): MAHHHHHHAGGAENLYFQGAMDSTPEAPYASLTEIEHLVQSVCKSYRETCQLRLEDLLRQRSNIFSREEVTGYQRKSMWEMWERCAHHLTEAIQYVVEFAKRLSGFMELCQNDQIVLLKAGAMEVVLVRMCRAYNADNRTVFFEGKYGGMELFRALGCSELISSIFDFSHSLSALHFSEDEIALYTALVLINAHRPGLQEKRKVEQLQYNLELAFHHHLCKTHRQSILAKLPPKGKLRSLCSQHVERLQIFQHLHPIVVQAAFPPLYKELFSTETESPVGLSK
Chain of full-length human RORγt (P51449 other isoform, or with tags, fused parts or gaps): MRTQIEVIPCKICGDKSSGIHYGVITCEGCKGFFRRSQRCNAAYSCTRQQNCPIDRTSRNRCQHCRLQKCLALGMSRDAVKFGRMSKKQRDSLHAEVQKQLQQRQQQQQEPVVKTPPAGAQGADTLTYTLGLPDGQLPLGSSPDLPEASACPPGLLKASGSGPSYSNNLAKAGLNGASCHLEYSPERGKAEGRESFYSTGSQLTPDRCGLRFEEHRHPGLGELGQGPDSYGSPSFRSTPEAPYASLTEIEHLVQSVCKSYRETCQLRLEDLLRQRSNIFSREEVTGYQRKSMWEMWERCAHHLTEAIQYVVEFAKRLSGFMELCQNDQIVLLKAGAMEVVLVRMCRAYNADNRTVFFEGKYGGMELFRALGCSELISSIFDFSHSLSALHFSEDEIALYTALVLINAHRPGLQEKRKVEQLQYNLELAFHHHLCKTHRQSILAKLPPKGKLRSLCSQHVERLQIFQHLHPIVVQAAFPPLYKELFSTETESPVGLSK

Compound	Kd [1]	inhibition at 1 µM [2]	IC50 [2]	inhibition at 6 µM ([2]; read-out: RORγt (FL) Reporter Assay B or C, % inhibition @ 6 μM, Conditions B or C, @ 6 μM)	inhibition at 3 µM [2]	IC50 ([2]; Conditions B or C)	RORγt (FL) Reporter Assay B or C, % inhibition (value marked *) ([2]; Conditions B or C)
C[C@@H](Nc1cc(C(F)(F)F)c(-c2sc(C(=O)NCC(C)(C)O)nc2C(=O)N2CCC(F)CC2)cn1)C1CC1 [Example 29, (R)-5-(6-((1-Cyclopropylethyl)amino)-4-(trifluoromethyl)pyridin-3-yl)-4-(4-fluoropiperidine-1-carbonyl)-N-(2-hydroxy-2-methylpropyl)thiazole-2-carboxamide]	22 nM			105%		22 nM	
CC(C)(O)CNC(=O)c1nc(C(=O)N2C3CCC2CC3)c(-c2cnc(NCC3(C(F)(F)F)CCC3)cc2C(F)(F)F)s1 [Example 119, 4-((1s,4s)-7-Azabicyclo[2.2.1]heptane-7-carbonyl)-N-(2-hydroxy-2-methylpropyl)-5-(4-(trifluoromethyl)-6-(((1-(trifluoromethyl)cyclobutyl)methyl)amino)pyridin-3-yl)thiazole-2-carboxamide]	1.5 nM					17 nM	108* %
CNC(=O)c1nc(C(=O)N2CCC[C@@H]2C)c(-c2cnc(NC(C)(C)C)cc2C(F)(F)F)s1 [Example 307, (S)-5-(6-(tert-Butylamino)-4-(trifluoromethyl)pyridin-3-yl)-N-methyl-4-(2-methylpyrrolidine-1-carbonyl)thiazole-2-carboxamide]	43 nM		150 nM		102%		
O=C(N[C@@H]1CCC[C@H]1O)c1nc(C(=O)N2C3CCC2CC3)c(-c2cnc(N[C@@H](C3CC3)C(F)(F)F)cc2C(F)F)s1 [Example 439, 4-((1s,4s)-7-Azabicyclo[2.2.1]heptane-7-carbonyl)-5-[6-[[(1S)-1-cyclopropyl-2,2,2-trifluoro-ethyl]amino]-4-(difluoromethyl)-3-pyridyl]-N-[(1R,2R)-2-hydroxycyclopentyl]thiazole-2-carboxamide]	0.27 nM		10 nM		102%		
CC(C)(O)CNC(=O)c1nc(C(=O)N2C3CCC2CC3)c(-c2cnc(NC3(C(F)(F)F)CCC3)cc2C(F)(F)F)s1 [Example 99, 4-((1s,4s)-7-Azabicyclo[2.2.1]heptane-7-carbonyl)-N-(2-hydroxy-2-methylpropyl)-5-(4-(trifluoromethyl)-6-((1-(trifluoromethyl)cyclobutyl)amino)pyridin-3-yl)thiazole-2-carboxamide]	0.58 nM					11 nM	108* %
CC[C@H](Nc1cc(C(F)F)c(-c2sc(C(=O)N[C@@H]3COC[C@H]3O)nc2C(=O)N2C3CCC2CC3)cn1)C(F)(F)F [Example 208, 4-((1s,4s)-7-Azabicyclo[2.2.1]heptane-7-carbonyl)-5-(4-(difluoromethyl)-6-(((1S)-1-(trifluoromethyl)propyl)amino)-3-pyridyl)-N-((3R,4S)-4-hydroxytetrahydrofuran-3-yl)thiazole-2-carboxamide]	4.4 nM					54 nM	101* %
CC[C@H](Nc1cc(C(F)F)c(-c2sc(C(=O)N[C@@H]3CC[C@H]3O)nc2C(=O)N2C3CCC2CC3)cn1)C(F)(F)F (relative stereo) [Example 405, 4-((1s,4s)-7-Azabicyclo[2.2.1]heptane-7-carbonyl)-5-(4-(difluoromethyl)-6-(((S)-1,1,1-trifluorobutan-2-yl)amino)pyridin-3-yl)-N-((1R*,2R*)-2-hydroxycyclobutyl)thiazole-2-carboxamide]	2 nM		110 nM		95%		
C[C@H]1CCCN1C(=O)c1nc(C(=O)N[C@H](C)C(C)(C)O)sc1-c1cnc(NC(C)(C)C)cc1C(F)(F)F [Example 335, 5-[6-(tert-Butylamino)-4-(trifluoromethyl)-3-pyridyl]-N-[(1R)-2-hydroxy-1,2-dimethyl-propyl]-4-[(2S)-2-methylpyrrolidine-1-carbonyl]thiazole-2-carboxamide]	1.3 nM		40 nM		102%		
C[C@H]1CCCN1C(=O)c1nc(C(=O)N(C)CC(C)(C)O)sc1-c1cnc(NC(C)(C)C)cc1C(F)(F)F [Example 340, 5-[6-(tert-Butylamino)-4-(trifluoromethyl)-3-pyridyl]-N-(2-hydroxy-2-methyl-propyl)-N-methyl-4-[(2S)-2-methylpyrrolidine-1-carbonyl]thiazole-2-carboxamide]	5.3 nM		11 nM		111%		
C[C@H]1CCCN1C(=O)c1nc(C(=O)N2C[C@@H](O)[C@H](F)C2)sc1-c1cnc(NC(C)(C)C)cc1C(F)(F)F [Example 372, [5-[6-(tert-Butylamino)-4-(trifluoromethyl)-3-pyridyl]-2-[(3R,4R)-3-fluoro-4-hydroxy-pyrrolidine-1-carbonyl]thiazol-4-yl]-[(2S)-2-methylpyrrolidin-1-yl]methanone]	9.2 nM		59 nM		125%		

Further lines, with some results ahead:

Kd [1]	inhibition at 1 µM [2]	IC50 [2]	inhibition at 6 µM ([2]; read-out: RORγt (FL) Reporter Assay B or C, % inhibition @ 6 μM, Conditions B or C, @ 6 μM)	inhibition at 3 µM [2]	Compound	IC50 ([2]; Conditions B or C)	RORγt (FL) Reporter Assay B or C, % inhibition (value marked *) ([2]; Conditions B or C)
0.43 nM	89%	37 nM			CC[C@H](Nc1cc(C(F)F)c(-c2sc(C(=O)N[C@H]3CC[C@H](O)C3)nc2C(=O)N2CC(F)(F)C[C@@H]2C)cn1)C(F)(F)F [Example 416, 4-[(2S)-4,4-Difluoro-2-methyl-pyrrolidine-1-carbonyl]-5-[4-(difluoromethyl)-6-[[(1S)-1-(trifluoromethyl)propyl]amino]-3-pyridyl]-N-[(1S,3S)-3-hydroxycyclopentyl]thiazole-2-carboxamide]		
4.3 nM	102%	38 nM			C[C@H]1CCCN1C(=O)c1nc(C(=O)N[C@H]2COC[C@@H]2O)sc1-c1cnc(NC(C)(C)C)cc1C(F)F [Example 401, 5-[6-(tert-Butylamino)-4-(difluoromethyl)-3-pyridyl]-N-[(3S,4R)-4-hydroxytetrahydrofuran-3-yl]-4-[(2S)-2-methylpyrrolidine-1-carbonyl]thiazole-2-carboxamide]		
0.21 nM		34 nM		84%	CC[C@H](Nc1cc(C(F)F)c(-c2sc(C(=O)N[C@H]3CCC[C@@H]3O)nc2C(=O)N2CC(F)(F)C[C@@H]2C)cn1)C(F)(F)F [Example 419, 4-[(2S)-4,4-Difluoro-2-methyl-pyrrolidine-1-carbonyl]-5-[4-(difluoromethyl)-6-[[(1S)-1-(trifluoromethyl)propyl]amino]-3-pyridyl]-N-[(1S,2S)-2-hydroxycyclopentyl]thiazole-2-carboxamide]		
3.5 nM		5.1 nM		102%	C[C@H](NC(=O)c1nc(C(=O)N2CCC[C@@H]2C)c(-c2cnc(NC(C)(C)C)cc2C(F)F)s1)C(C)(C)O [Example 270, 5-[6-(tert-Butylamino)-4-(difluoromethyl)-3-pyridyl]-N-[(1S)-2-hydroxy-1,2-dimethyl-propyl]-4-[(2S)-2-methylpyrrolidine-1-carbonyl]thiazole-2-carboxamide]		
0.26 nM					C[C@H]1CC(F)(F)CN1C(=O)c1nc(C(=O)NCC(C)(C)O)sc1-c1cnc(NC(C)(C)C2CC2)cc1C(F)(F)F [Example 107, (S)-5-(6-((2-Cyclopropylpropan-2-yl)amino)-4-(trifluoromethyl)pyridin-3-yl)-4-(4,4-difluoro-2-methylpyrrolidine-1-carbonyl)-N-(2-hydroxy-2-methylpropyl)thiazole-2-carboxamide]	11 nM	111* %
18 nM		79 nM		109%	CC[C@H](Nc1cc(C(F)F)c(-c2sc(C(=O)N3CC4CCC(C3)O4)nc2C(=O)N2CCC[C@@H]2C)cn1)C(F)(F)F [Example 378, [5-[4-(Difluoromethyl)-6-[[(1S)-1-(trifluoromethyl)propyl]amino]-3-pyridyl]-2-(8-oxa-3-azabicyclo[3.2.1]octane-3-carbonyl)thiazol-4-yl]-[(2S)-2-methylpyrrolidin-1-yl]methanone]		
0.37 nM		79 nM		96%	CC[C@H](Nc1cc(C(F)F)c(-c2sc(C(=O)NC3CCS(=O)(=O)CC3)nc2C(=O)N2CC(F)(F)C[C@@H]2C)cn1)C(F)(F)F [Example 426, 4-[(2S)-4,4-Difluoro-2-methyl-pyrrolidine-1-carbonyl]-5-[4-(difluoromethyl)-6-[[(1S)-1-(trifluoromethyl)propyl]amino]-3-pyridyl]-N-(1,1-dioxothian-4-yl)thiazole-2-carboxamide]		
3.7 nM					C[C@H]1CCCN1C(=O)c1nc(C(=O)NCC2(O)CCC2)sc1-c1cnc(NC2CCCC2)cc1C(F)F [Example 71, (S)-5-(6-(Cyclopentylamino)-4-(difluoromethyl)pyridin-3-yl)-N-((1-hydroxycyclobutyl)methyl)-4-(2-methylpyrrolidine-1-carbonyl)thiazole-2-carboxamide]	13 nM	111* %
4.9 nM		28 nM		112%	C[C@H]1CCCN1C(=O)c1nc(C(=O)NCC(O)(C(F)(F)F)C(F)(F)F)sc1-c1cnc(NC(C)(C)C)cc1C(F)F [Example 264, 5-[6-(tert-Butylamino)-4-(difluoromethyl)-3-pyridyl]-4-[(2S)-2-methylpyrrolidine-1-carbonyl]-N-[3,3,3-trifluoro-2-hydroxy-2-(trifluoromethyl)propyl]thiazole-2-carboxamide]		
